“Also recorded” adds a separate entry of the source. Like-named read-outs stand apart in the source and are kept apart here.
Assays:
[1] = Solubility in the assay medium; format: physicochemical; settings: CD38 assay medium
CD38 [2] = molecular target: T1, CD38 (Homo sapiens, UniProt P28907); test: Inhibition of CD38-catalyzed cADPR hydrolysis (fluorimetric cycling assay); format: biochemical; settings: for IC50 / inhibitory activity (IC50) of CD38-mediated cADPR hydrolysis: 1 mM cADPR, 2 mg/mL CD38, 10 min, pH 4.5, IC50 values >1000 μM are approximate; for IC50: read-out: inhibitory activity (IC50) of CD38-mediated cADPR hydrolysis
T1 construct: incubating 1 mM cADPR with 2 mg/mL of CD38 for 10 min
T1 sequence (P28907 1-300): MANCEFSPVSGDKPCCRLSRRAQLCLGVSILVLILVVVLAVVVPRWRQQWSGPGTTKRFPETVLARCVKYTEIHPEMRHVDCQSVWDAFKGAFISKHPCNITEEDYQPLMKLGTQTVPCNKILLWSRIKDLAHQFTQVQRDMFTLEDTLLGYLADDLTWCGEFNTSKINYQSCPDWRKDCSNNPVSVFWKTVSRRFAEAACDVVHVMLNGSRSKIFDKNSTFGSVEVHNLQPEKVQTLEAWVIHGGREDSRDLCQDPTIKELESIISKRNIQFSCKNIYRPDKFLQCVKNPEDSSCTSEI
Method: The inhibition of cADPR hydrolysis by various concentrations of inhibitor (0–1 mM) was determined by incubating 1 mM cADPR with 2 mg/mL of CD38 for 10 min at 20–24uC in 25 mM sodium acetate, pH 4.5. The reaction was stopped by the addition of 150 mM HCl. The precipitated protein was filtered, and the pH was neutralized with Tris base. After diluting the mixture 20-fold, the concentration of the unhydrolyzed cADPR present in the diluted reaction mixture was assayed by the fluorimetric cycling assay as previously described.[46]

CD38 [3] = molecular target: T1, CD38; settings: N1-IMP fragments and 8-NH2-N1-cIDPR from earlier work; read-out: IC50, inhibition of CD38-catalyzed cADPR hydrolysis; cited from earlier work
T-cells = tested on: T-cells; parameters: method as in PMID 12932045, PMID 16967053; settings: compared with cADPR; cited from earlier work
[4] = molecular target: T2, shCD38 (CD38 catalytic domain) (Homo sapiens, UniProt P28907); test: Ligand hydrolysis by high concentrations of shCD38, monitored by RP-HPLC; format: biochemical; settings: 1 mM ligand, 4 mg/mL shCD38
T2 construct: high concentrations of CD38 catalytic domain (shCD38) present in crystallography media
T2 sequence (P28907 43-300 limits assumed): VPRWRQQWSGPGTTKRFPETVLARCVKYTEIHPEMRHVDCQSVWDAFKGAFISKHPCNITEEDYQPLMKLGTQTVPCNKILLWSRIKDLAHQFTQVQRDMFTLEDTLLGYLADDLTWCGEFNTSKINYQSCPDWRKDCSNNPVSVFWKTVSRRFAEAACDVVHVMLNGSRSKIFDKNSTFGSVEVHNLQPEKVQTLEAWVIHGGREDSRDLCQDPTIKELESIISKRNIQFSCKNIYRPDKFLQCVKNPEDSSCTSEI
Method: Indeed, 8-NH2-N9-butyl-cIDPR (6, Figure 2) was captured as the hydrolyzed product in the crystal structure with shCD38. […] Incubation of 11, 8-NH2-N1-IMP (1 mM final concentration) with 4 mg/mL shCD38 was monitored using RP-HPLC. The peak corresponding to 8-NH2-N1-IMP (RT = 10.5 min) reduced in intensity over time, alongside the appearance of a new peak (RT = 2.0 min) that was characteristic of an 8-amino substituted hypoxanthine analog (See Supplementary Information, Figure S1).
HPLC studies were carried out as previously described.[36] Briefly, the solution containing shCD38 was adjusted to the desired concentration using Tris-HCl buffer (20 mM, pH 8) and 50 μL was added to the inhibitor (0.05 μmole) in an Eppendorf tube at room temperature. At a given time point, a sample of 5 μL was removed and diluted with 95 μL MilliQ water. 10 μL Of this sample was injected directly into the analytical HPLC system (see General Experimental), eluting at 1 mL/min with an isocratic ion-pair buffer: 0.17% (m/v) cetrimide and 45% (v/v) phosphate buffer (pH 6.4) in MeOH.

SMILES	IC50 (CD38 [2]) [µM]	inhibitory activity on CD38-mediated cADPR hydrolysis, in words (CD38 [2])	also measured
O=c1c2nc(Br)n(CCCCO)c2ncn1[C@@H]1O[C@H](CO)[C@@H](O)[C@H]1O [Compound 18, N1-(β-D-Ribofuranosyl)-N9-(4-hydroxybutyl)-8-bromohypoxanthine]	–	–	solubility in the assay medium [1]: insoluble in the assay medium
NS(=O)(=O)OC[C@H]1O[C@@H](n2cnc3[nH]cnc3c2=O)[C@H](O)[C@@H]1O [Compound 29, N1-(5′-O-sulfonamide-β-D-ribofuranosyl)-hypoxanthine]	–	neither of the two analogues (28, 29) showed any activity	inhibitory activity (IC50) of CD38-mediated cADPR hydrolysis (CD38 [2]): No activity
O=c1c2nc[nH]c2ncn1[C@@H]1O[C@H](COP(=O)(O)O)[C@@H](O)[C@H]1O [Compound 9, N1-Inosine 5′-monophosphate]	–	–	IC50 (CD38 [3]): 14 ± 5 µM
O=c1c2ncn3c2ncn1[C@@H]1O[C@H](COP(=O)(O)OP(=O)(O)OC[C@H]2O[C@@H]3[C@H](O)[C@@H]2O)[C@@H](O)[C@H]1O [Compound 2, cyclic inosine 5′-diphosphoribose]	–	–	Ca2+ release (T-cells): almost indistinguishably to that induced by cADPR
Nc1nc2c(=O)n([C@@H]3O[C@H](CO)[C@@H](O)[C@H]3O)cnc2n1[C@@H]1O[C@H](CO)[C@@H](O)[C@H]1O [Compound 17, N1-(β-D-ribofuranosyl)-8-aminoinosine]	~7600	low mM inhibitory activity	–
Nc1nc2c(=O)n([C@@H]3O[C@H](COP(=O)(O)O)[C@@H](O)[C@H]3O)cnc2[nH]1 [Compound 11, N1-(5′-O-Phosphoryl-β-D-ribofuranosyl)-8-aminohypoxanthine]	–	–	IC50 (CD38 [3]): 7.6 ± 0.2 µM; hydrolysis of ligand by shCD38 (RP-HPLC) [4]: hydrolyzed more rapidly than cIDPR (2), but more slowly than 8-NH2-N9-butyl-cIDPR (6); also recorded: hydrolyzed at the N1-ribosyl bond; hydrolysis of ligand by shCD38 (RP-HPLC) ([4]; listed as 8-NH2-N1-IMP): cleaved at high CD38 concentrations
[N-]=[N+]=Nc1nc2c(=O)n([C@@H]3O[C@H](CO)[C@@H](O)[C@H]3O)cnc2n1[C@@H]1O[C@H](CO)[C@@H](O)[C@H]1O [Compound 16, N1-(β-D-ribofuranosyl)-8-azidoinosine]	–	no activity	inhibitory activity (IC50) of CD38-mediated cADPR hydrolysis (CD38 [2]): No activity
O=c1c2nc(Br)[nH]c2ncn1[C@@H]1O[C@H](COP(=O)(O)O)[C@@H](O)[C@H]1O [Compound 10, N1-(5′-O-Phosphoryl-β-D-ribofuranosyl)-8-bromohypoxanthine]	–	–	IC50 (CD38 [3]): 201 ± 41 µM
NS(=O)(=O)OC[C@H]1O[C@@H](n2cnc3[nH]c(Cl)nc3c2=O)[C@H](O)[C@@H]1O [Compound 28, N1-(5′-O-sulfonamide-β-D-ribofuranosyl)-8-chlorohypoxanthine]	–	neither of the two analogues (28, 29) showed any activity	inhibitory activity (IC50) of CD38-mediated cADPR hydrolysis (CD38 [2]): No activity
O=c1c2ncn([C@@H]3O[C@H](CO)[C@@H](O)[C@H]3O)c2ncn1[C@@H]1O[C@H](CO)[C@@H](O)[C@H]1O [Compound 15, N1-(β-D-Ribofuranosyl)-inosine]	~7500	low mM inhibitory activity	–
O=c1c2nc(Br)n([C@@H]3O[C@H](CO)[C@@H](O)[C@H]3O)c2ncn1[C@@H]1O[C@H](CO)[C@@H](O)[C@H]1O [Compound 14, N1-(β-D-Ribofuranosyl)-8-bromoinosine]	–	no activity	inhibitory activity (IC50) of CD38-mediated cADPR hydrolysis (CD38 [2]): No activity
Nc1nc2c(=O)n3cnc2n1[C@@H]1O[C@H](COP(=O)(O)OP(=O)(O)OC[C@H]2O[C@@H]3[C@H](O)[C@@H]2O)[C@@H](O)[C@H]1O [Compound 4, 8-NH2-N1-cIDPR, reference compound]	–	–	IC50 (CD38 [3]): 56 µM

Further lines, with some results ahead:

IC50 (CD38 [2]) [µM]	inhibitory activity on CD38-mediated cADPR hydrolysis, in words (CD38 [2])	SMILES	also measured
~2300	–	O=c1c2ncn(CCCCO)c2ncn1[C@@H]1O[C@H](CO)[C@@H](O)[C@H]1O [Compound 19, N1-(β-D-Ribofuranosyl)-N9-(4-hydroxybutyl)-hypoxanthine]	–
230 ± 9	–	O=c1c2nc(Br)[nH]c2ncn1[C@H]1O[C@@H](COP(=O)(O)O)[C@H](O)[C@@H]1O [Compound 26, N1-(5′-O-Phosphoryl-β-L-ribofuranosyl)-8-bromohypoxanthine]	–
201	–	[N-]=[N+]=Nc1nc2c(=O)n([C@@H]3O[C@H](COP(=O)(O)O)[C@@H](O)[C@H]3O)cnc2n1CCCCO [Compound 24, N1-(5′-O-Phosphoryl-β-D-ribofuranosyl)-N9-(4-hydroxybutyl)-8-azidohypoxanthine]	–
332	–	Nc1nc2c(=O)n([C@@H]3O[C@H](COP(=O)(O)O)[C@@H](O)[C@H]3O)cnc2n1CCCCO [Compound 25, N1-(5′-O-Phosphoryl-β-D-ribofuranosyl)-N9-(4-hydroxybutyl)-8-aminohypoxanthine]	–
~9500	–	[N-]=[N+]=Nc1nc2c(=O)n([C@@H]3O[C@H](CO)[C@@H](O)[C@H]3O)cnc2n1CCCCO [Compound 20, N1-(β-D-Ribofuranosyl)-N9-(4-hydroxybutyl)-8-azidohypoxanthine]	–
~3300	–	Nc1nc2c(=O)n([C@@H]3O[C@H](CO)[C@@H](O)[C@H]3O)cnc2n1CCCCO [Compound 21, N1-(β-D-Ribofuranosyl)-N9-(4-hydroxybutyl)-8-aminohypoxanthine]	–
460	–	O=c1c2nc[nH]c2ncn1[C@H]1O[C@@H](COP(=O)(O)O)[C@H](O)[C@@H]1O [Compound 27, N1-(5′-O-Phosphoryl-β-L-ribofuranosyl)-hypoxanthine]	fold reduction in activity compared to parent / D-ribose N1-IMP counterpart (CD38 [2]; ratio of IC50 values): 30 fold
757	–	O=c1c2ncn(CCCCO)c2ncn1[C@@H]1O[C@H](COP(=O)(O)O)[C@@H](O)[C@H]1O [Compound 23, N1-(5′-O-Phosphoryl-β-D-ribofuranosyl)-N9-(4-hydroxybutyl)hypoxanthine]	–

Source: PMC8658804, “Small Molecule CD38 Inhibitors: Synthesis of 8-Amino-N1-Inosine 5′-Monophosphate, Analogues and Early Structure-Activity Relationship” (Molecules (Basel, Switzerland), 2021)
